According to PMC12621043, “Un-LOK-ing a New Approach for Conformational Selective Targeting of STK10 (LOK)” (ACS Medicinal Chemistry Letters, 2025):

How the values were obtained:
Assay in all cases: DSF Tm panel
Assay type in all cases: binding
Settings in all cases: 10 μM compound
CAMK4A = biological target: T1, CAMK4A (Homo sapiens, UniProt Q16566)
T1 construct: purchased in-house DSF kinase panel (SGC-style construct names; the trailing letter is the construct ID)
T1 sequence (Q16566 1-473): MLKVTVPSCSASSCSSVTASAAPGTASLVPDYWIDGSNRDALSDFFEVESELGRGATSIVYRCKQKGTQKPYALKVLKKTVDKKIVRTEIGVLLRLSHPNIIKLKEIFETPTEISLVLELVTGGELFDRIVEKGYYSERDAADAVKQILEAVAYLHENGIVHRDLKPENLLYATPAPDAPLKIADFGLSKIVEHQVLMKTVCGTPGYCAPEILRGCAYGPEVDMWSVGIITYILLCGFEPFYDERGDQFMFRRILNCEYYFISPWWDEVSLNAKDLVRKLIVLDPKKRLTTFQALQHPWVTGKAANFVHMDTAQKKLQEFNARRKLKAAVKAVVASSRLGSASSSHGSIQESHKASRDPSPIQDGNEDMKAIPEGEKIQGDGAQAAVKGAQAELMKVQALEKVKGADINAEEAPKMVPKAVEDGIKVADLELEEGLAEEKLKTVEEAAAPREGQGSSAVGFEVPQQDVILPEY
Experimental: (§1) The synthesized urea-based derivatives were evaluated in a panel of kinases by differential scanning fluorescence (DSF) to investigate their selectivity profile. A positive ΔT m in the DSF assay indicates stabilization of the protein upon ligand binding in comparison to its apo state, with higher thermal shifts generally correlating with stronger binding. For this purpose, we used our internal kinase selectivity panel (∼90 kinases) along with staurosporine as a positive control. […] This was also reflected in the overall low selectivity score (S) throughout the series, which is determined by the ratio between the number of kinases that are stabilized above 5 °C and the total number of kinases tested (Figure ). Motivated by these findings, we further validated the entire series by orthogonal binding and activity assays to determine the in vitro and cellular potency and selectivity of the developed series in comparison to the selected reference compounds. […]
(§2) was performed as previously described.[1,2] Briefly, recombinant protein kinase domains at a concentration of 2 μM were mixed with 10 μM compound in a buffer containing 20 mM HEPES, […]
(§3) probe (1 µl per mL). Subsequently, temperature-dependent protein unfolding profiles were […]
(§4) emission filters were set to 465 nm and 590 nm, respectively. The temperature was raised with a step rate of 3 °C per minute. […]
(§5) inflection point of the transition curve. […]
(§6) previously.[3] In brief, STK10, STK3, STK4 and SLK were obtained as plasmids cloned in […]
(§7) Plasmids were transfected into
(§8) KD concentration taken from TracerDB (tracerdb.org)[4] were pipetted into white 384-well

TAF1A = system: TAF1A
Experimental: as §1, §2, §3, §4, §5, §6, §7, §8

STK17AA = biological target: T2, STK17AA (Homo sapiens, UniProt Q9UEE5)
T2 construct: purchased in-house DSF kinase panel (SGC-style construct names; the trailing letter is the construct ID)
T2 sequence (Q9UEE5 61-321): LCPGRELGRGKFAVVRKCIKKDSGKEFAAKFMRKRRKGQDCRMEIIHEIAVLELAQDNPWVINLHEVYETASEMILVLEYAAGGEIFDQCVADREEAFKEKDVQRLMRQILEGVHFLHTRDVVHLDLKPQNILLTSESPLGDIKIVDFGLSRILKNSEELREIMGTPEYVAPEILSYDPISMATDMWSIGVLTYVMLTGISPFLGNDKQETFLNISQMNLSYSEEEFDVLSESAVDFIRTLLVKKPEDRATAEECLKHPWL
Experimental: as §1, §2, §3, §4, §5, §6, §7, §8

MAP2K4A = biological target: T3, MAP2K4A (Homo sapiens, UniProt P45985)
T3 construct: purchased in-house DSF kinase panel (SGC-style construct names; the trailing letter is the construct ID)
T3 sequence (P45985 102-367): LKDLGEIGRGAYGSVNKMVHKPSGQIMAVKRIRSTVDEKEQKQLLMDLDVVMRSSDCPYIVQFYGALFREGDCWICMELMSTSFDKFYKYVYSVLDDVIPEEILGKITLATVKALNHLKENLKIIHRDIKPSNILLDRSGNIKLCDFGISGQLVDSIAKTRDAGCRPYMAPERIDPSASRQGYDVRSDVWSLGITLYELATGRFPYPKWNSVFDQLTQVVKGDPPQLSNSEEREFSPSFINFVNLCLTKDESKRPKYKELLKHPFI
Experimental: as §1, §2, §3, §4, §5, §6, §7, §8

K2A2 (CSNK2A2A) = biological target: T4, K2A2 (CSNK2A2A) (Homo sapiens, UniProt P19784)
T4 construct: purchased in-house DSF kinase panel (SGC-style construct names; the trailing letter is the construct ID)
T4 sequence (P19784 whole entry): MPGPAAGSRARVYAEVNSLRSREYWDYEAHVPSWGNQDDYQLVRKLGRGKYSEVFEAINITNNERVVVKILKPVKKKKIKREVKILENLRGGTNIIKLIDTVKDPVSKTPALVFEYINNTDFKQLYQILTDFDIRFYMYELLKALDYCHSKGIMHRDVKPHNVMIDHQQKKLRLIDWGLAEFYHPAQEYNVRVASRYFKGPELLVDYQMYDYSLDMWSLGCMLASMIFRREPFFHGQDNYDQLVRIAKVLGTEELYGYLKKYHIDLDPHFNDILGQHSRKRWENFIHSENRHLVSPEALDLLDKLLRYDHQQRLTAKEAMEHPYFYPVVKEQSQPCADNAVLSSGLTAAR
Experimental: as §1, §2, §3, §4, §5, §6, §7, §8

STK6A = biological target: T5, STK6A (Homo sapiens, UniProt O14965)
T5 construct: purchased in-house DSF kinase panel (SGC-style construct names; the trailing letter is the construct ID)
T5 sequence (O14965 122-403): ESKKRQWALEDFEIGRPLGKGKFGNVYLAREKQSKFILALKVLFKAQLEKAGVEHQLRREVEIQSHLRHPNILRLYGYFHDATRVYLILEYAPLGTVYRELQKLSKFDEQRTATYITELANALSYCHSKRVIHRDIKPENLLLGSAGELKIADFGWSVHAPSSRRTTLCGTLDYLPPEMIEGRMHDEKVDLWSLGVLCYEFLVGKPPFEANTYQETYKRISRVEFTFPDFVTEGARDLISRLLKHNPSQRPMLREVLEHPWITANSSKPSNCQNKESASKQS
Experimental: as §1, §2, §3, §4, §5, §6, §7, §8

CAMK1DA = biological target: T6, CAMK1DA (Homo sapiens, UniProt Q8IU85)
T6 construct: purchased in-house DSF kinase panel (SGC-style construct names; the trailing letter is the construct ID)
T6 sequence (Q8IU85 whole entry): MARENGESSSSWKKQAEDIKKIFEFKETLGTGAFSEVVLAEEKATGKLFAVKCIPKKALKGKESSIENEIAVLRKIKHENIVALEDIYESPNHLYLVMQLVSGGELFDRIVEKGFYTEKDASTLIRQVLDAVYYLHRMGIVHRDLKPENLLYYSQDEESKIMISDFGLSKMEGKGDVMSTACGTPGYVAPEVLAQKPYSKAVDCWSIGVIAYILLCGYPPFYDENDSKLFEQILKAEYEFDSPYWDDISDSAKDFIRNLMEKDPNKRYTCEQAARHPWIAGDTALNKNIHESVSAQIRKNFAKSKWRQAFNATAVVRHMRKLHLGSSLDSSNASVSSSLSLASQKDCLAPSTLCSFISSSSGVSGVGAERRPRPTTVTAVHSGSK
Experimental: as §1, §2, §3, §4, §5, §6, §7, §8

GAKA = biological target: T7, GAKA (Homo sapiens, UniProt O14976)
T7 construct: purchased in-house DSF kinase panel (SGC-style construct names; the trailing letter is the construct ID)
T7 sequence (O14976 14-351): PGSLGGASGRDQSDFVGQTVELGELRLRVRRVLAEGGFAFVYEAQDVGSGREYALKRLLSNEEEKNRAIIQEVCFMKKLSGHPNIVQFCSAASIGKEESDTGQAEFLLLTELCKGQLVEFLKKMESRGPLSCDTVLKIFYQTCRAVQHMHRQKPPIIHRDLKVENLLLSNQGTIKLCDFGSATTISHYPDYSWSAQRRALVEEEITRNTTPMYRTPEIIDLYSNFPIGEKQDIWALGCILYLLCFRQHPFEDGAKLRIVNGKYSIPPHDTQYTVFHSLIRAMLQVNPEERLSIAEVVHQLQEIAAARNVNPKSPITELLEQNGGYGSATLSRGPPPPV
Experimental: as §1, §2, §3, §4, §5, §6, §7, §8

Compound | ΔTm at 10 µM (CAMK4A) | ΔTm at 10 µM (STK17AA) | ΔTm at 10 µM (MAP2K4A) | ΔTm at 10 µM (K2A2 (CSNK2A2A)) | ΔTm at 10 µM (STK6A) | ΔTm at 10 µM (CAMK1DA) | ΔTm at 10 µM (GAKA) | ΔTm TAF1A (TAF1A)
O=C(NCc1cccc(Cl)c1)Nc1ccc2cc1OCCOCCNc1ccn3ncc-2c3n1 [compound 18] | 1.3 °C | 5.1 °C | 4.1 °C | 3.1 °C | 7.3 °C | 0.4 °C | 4.1 °C | 0,5 °C
Cc1cc(Br)ccc1CNC(=O)Nc1ccc2cc1OCCOCCNc1ccn3ncc-2c3n1 [compound 24] | 0.8 °C | 2.3 °C | 3.2 °C | 0.5 °C | 5.4 °C | 1.3 °C | 5.9 °C | 0,1 °C
O=C(NCc1ccccc1Cl)Nc1ccc2cc1OCCOCCNc1ccn3ncc-2c3n1 [compound 17] | 0.6 °C | 2.3 °C | 5 °C | 4 °C | 6.7 °C | -0.3 °C | 4.8 °C | 0,5 °C
COc1ccccc1CNC(=O)Nc1ccc2cc1OCCOCCNc1ccn3ncc-2c3n1 [compound 29] | 0.6 °C | 3.1 °C | 2.8 °C | 0.3 °C | 5.6 °C | 0.4 °C | 4.5 °C | 0,0 °C
COc1ccc(CNC(=O)Nc2ccc3cc2OCCOCCNc2ccn4ncc-3c4n2)cc1F [compound 32] | 0.9 °C | 5.3 °C | 4 °C | 2.2 °C | 7.6 °C | 1.4 °C | 6 °C | 0,2 °C
COc1ccc(CNC(=O)Nc2ccc3cc2OCCOCCNc2ccn4ncc-3c4n2)cc1 [compound 31] | 1.1 °C | 5.1 °C | 4.3 °C | 2.5 °C | 8 °C | 1.2 °C | 6.2 °C | 0,0 °C
COc1cccc(CNC(=O)Nc2ccc3cc2OCCOCCNc2ccn4ncc-3c4n2)c1 [compound 30] | 0.8 °C | 5.8 °C | 3.2 °C | 0.8 °C | 7.4 °C | 0.4 °C | 4.7 °C | -0,1 °C
O=C(NCc1ccc(Cl)cc1F)Nc1ccc2cc1OCCOCCNc1ccn3ncc-2c3n1 [compound 21] | 0.9 °C | 2 °C | 5.4 °C | 4.2 °C | 6.9 °C | 0.8 °C | 3.9 °C | 0,4 °C

The next lines start with results.

ΔTm at 10 µM (CAMK4A) | ΔTm at 10 µM (STK17AA) | ΔTm at 10 µM (MAP2K4A) | ΔTm at 10 µM (K2A2 (CSNK2A2A)) | ΔTm at 10 µM (STK6A) | ΔTm at 10 µM (CAMK1DA) | ΔTm at 10 µM (GAKA) | Compound | ΔTm TAF1A (TAF1A)
1 °C | 2.4 °C | 5 °C | 0.5 °C | 7.6 °C | 2.1 °C | 5.1 °C | O=C(NCc1ccc(C(F)(F)F)cc1)Nc1ccc2cc1OCCOCCNc1ccn3ncc-2c3n1 [compound 28] | 0,3 °C
0.8 °C | 5.2 °C | 3.2 °C | 0.9 °C | 6.4 °C | 1 °C | 6 °C | Cc1ccc(F)cc1CNC(=O)Nc1ccc2cc1OCCOCCNc1ccn3ncc-2c3n1 [compound 26] | 0,1 °C
0.4 °C | 1.6 °C | 3.9 °C | 3 °C | 7.4 °C | 1 °C | 2.4 °C | O=C(NCc1ccc(Cl)cc1Cl)Nc1ccc2cc1OCCOCCNc1ccn3ncc-2c3n1 [compound 20] | 0,6 °C
0 °C | 1.7 °C | 1.8 °C | 3.6 °C | 2.4 °C | -1.2 °C | 3.8 °C | CN1CCN(C(=O)Nc2ccc3cc2OCCOCCNc2ccn4ncc-3c4n2)CC1 [compound 35] | 0,1 °C
0.6 °C | 0.7 °C | 4.8 °C | 2.8 °C | 5.6 °C | 2.1 °C | 2.8 °C | Cc1cc(Cl)ccc1CNC(=O)Nc1ccc2cc1OCCOCCNc1ccn3ncc-2c3n1 [compound 23] | 0,6 °C
0.6 °C | 6 °C | 3.3 °C | 1.2 °C | 7.7 °C | 0.8 °C | 5.7 °C | C[C@H](NC(=O)Nc1ccc2cc1OCCOCCNc1ccn3ncc-2c3n1)c1ccccc1 [compound 34] | -0,3 °C
1.2 °C | 4 °C | 5.1 °C | 0.7 °C | 7 °C | 1.7 °C | 5.4 °C | O=C(NCc1ccccc1C(F)(F)F)Nc1ccc2cc1OCCOCCNc1ccn3ncc-2c3n1 [compound 27] | 0,1 °C
1 °C | 7.6 °C | 3.6 °C | 1.7 °C | 9.9 °C | 1.1 °C | 6.2 °C | COc1cc(CNC(=O)Nc2ccc3cc2OCCOCCNc2ccn4ncc-3c4n2)ccc1F [compound 33] | 0,1 °C
1 °C | 2 °C | 5.7 °C | 3.6 °C | 7.1 °C | 0.6 °C | 4.4 °C | O=C(NCc1ccc(Cl)cc1)Nc1ccc2cc1OCCOCCNc1ccn3ncc-2c3n1 [compound 19] | -0,4 °C
0.5 °C | 4.9 °C | 5.2 °C | 2.3 °C | 7.5 °C | 0 °C | 6.1 °C | O=C(NCc1ccccc1)Nc1ccc2cc1OCCOCCNc1ccn3ncc-2c3n1 [compound 16] | 0,4 °C
